Reference: patent publication US12029728B2, “Small molecules with anti-protozoan activity” (New Mexico Tech University Research Park Corporation, priority 2018, dated 2024)

System: PBMC cells
Assay: MTT toxicity assay on PBMC / monocyte-derived macrophages
Assay type: cell-based, Human
Details: 5 (μM) MTF, 48 hours
Description: Human peripheral blood mononuclear cells (PBMC) were plated onto polylysine-coated glass slides in 24-well plates and allowed to differentiate towards monocyte-derived macrophages (MDMs). Non-adherent cells were removed 48-hours post plating. Adherent monocytes were left to further differentiate for another 48 hours to MDMs. Following the completion of the differentiation period, MDMs were treated with vehicle control (DMSO), […], or 10 μM of Compound 1, Compound 3, Compound 4, Compound 6, Compound 7, Compound 8, Compound 9, Compound 10, or Compound 11 for 48 hours.

SMILES: CCCCCCCCCCCCCCCCOP(=O)([O-])OCC[N+](C)(C)C [MTF, miltefosine]
- toxicity to PBMC cells (MTT): not toxic
